# Experimental data from patent publication US20180092947A1, “L-MYC Expression Maintains Self Renewal and Prolongs Multipotency of Primary Human Neural Stem Cells” (priority 2016, published 2018).
# Tested on: U251 human glioma cells
# Experiment: In vitro cytotoxicity assay, CPT-11 alone or with hCElm6 (CellTiter-Glo)
# Format: cell-based
# Settings: irinotecan 0-100 μM for 4 hours, then 96 hours drug-free, conditioned medium from CE-expressing LM-NSC008 cells
# Source text: To explore the therapeutic potential of LM-NSC008 cells, we characterized their migration to tumor-conditioned media in vitro. […] We performed in vitro cytotoxicity assays using human U251 glioma cells and various concentrations of irinotecan alone or in combination with CE derived from LM-NSC008 cells adenovirally transduced to express hCElm6. We observed enhanced irinotecan toxicity (500-fold) in the presence of hCElm6 in the culture media, when compared with CPT-11 alone. CE (hCElm6) activity was measured at 995 nmol/min/ml in the conditioned media derived from LM-NSC008 cells prior to cytotoxicity experiment (FIG. 2D).
# Human U251 glioma cell line was used in in vitro cytotoxicity assays as described previously (Metz et al., 2013). Briefly, cells were placed into 96-well plates (5,000 cells per well, in triplicate) in […] of culture media per well and cultured for 24 hours. Irinotecan (CPT-11), diluted in control culture medium or conditioned medium from CE-expressing LM-NSC008 cells, was then added to final concentrations of 0-100 μM. Cells were incubated with irinotecan for 4 hours, after which medium was aspirated and replaced with drug-free fresh medium, and cells were grown for an additional 96 hours. […]
compound,measurement,value
CCc1c2c(nc3ccc(OC(=O)N4CCC(N5CCCCC5)CC4)cc13)-c1cc3c(c(=O)n1C2)COC(=O)[C@]3(O)CC [irinotecan],enhanced irinotecan toxicity in the presence of hCElm6 compared with CPT-11 alone,500 fold
